Here are results for three substances from patent US6911470B1, “Polyoxometalate compounds as antiviral agents” (priority 1988, dated 2005).

One data set concerns human PBM cells. The experiment in a line: Cytotoxicity assay on uninfected PHA stimulated human PBMC (trypan blue). The format is cell-based. The conditions noted are these: Table 2; >100 μM = Nontoxic; read-out: IC50 Toxicity PBM Cells. As to the method: Cells. […] PBS), and pelleted at 300×g for 10 minutes. […] Cytotoxicity assay. The drugs were evaluated for their potential toxic effects on uninfected PHA stimulated human PBMC. Flasks were seeded so that the final cell concentration was 2×10^5 cells/ml. The cells were cultured with and without drug for 6 days, at which time aliquots were counted for cell viability, as assessed by the trypan blue dye-exclusion method using a hemacytometer. The median inhibitory concentration (IC50) was calculated using the median effect method (Chou et al, Elsevier-Biosoft, Elsevier Science Publishers, Cambridge, U.K., 1985; Chou et al, Adv. Enz. Regul. 22, 27-55, 1984). Median-effect method. Dose-effect relationships were analyzed by the median-effect equation (Chou et al, Adv. Enz. Regul. 22, 27-55, 1984). The slope (m) and median effective and inhibitory concentration (EC50 and IC50) values were obtained by using a computer program developed by Chou and Chou (Chou et al, Elsevier-Biosoft, Elsevier Science Publishers, Cambridge, U.K., 1985).

The target in data set [1] is T1, HIV-1 reverse transcriptase (Human immunodeficiency virus type 1 group M subtype B, UniProt P04585).
T1 construct: HIV-1 RT was isolated from detergent disrupted virions; made in house; host or cells: virions pelleted from culture fluid of HIV-1-infected PHA-stimulated human PBMC; DEAE-cellulose and phosphocellulose chromatography
The experiment in a line: Evaluation of compounds on purified retroviral RT (cell-free, virion-derived). Type of data set: biochemical. The conditions noted are these: Table 2; read-out: EC-50 Cell-Free RT (virion-derived). The protocol: Evaluation of compounds on purified retroviral RT. HIV-1 RT was isolated from detergent disrupted virions obtained from the cell-free supernatant of infected PHA-stimulated PBMC. The enzyme was purified by passing the extract through ion-exchange chromatography columns, as described previously (Eriksson et al, Antimicrob. Agents Chemother. 31, 600-604, 1977. Briefly, 750 ml of culture fluid harvested from HIV-1-infected PBMC were ultracentrifuged to pellet the virus. The pellet was dissolved in buffer A [50 mM Tris-HCl, pH 7.9/0.25% Nonidet P-40/5 mM dithiothreitol/20% (vol/vol) glycerol] containing 1 mM EDTA, and freeze-thawed four times. After clarification by centrifugation, the enzyme was partially purified from the supernatant by passing the extract through a DEAE-cellulose column (Whatman DE-52; 2.6×15 cm) previously equilibrated with buffer B (50 mM Tris-Cl, pH 7.9, 50 mM KCl, 1 mM EDTA, 1 mM dithiothreitol, 20% glycerol). Elution was performed using a linear gradient 50-500 mM KCl in buffer B. Fractions containing enzyme activity were dialyzed against buffer B and were further purified on a phosphocellulose column (Whatman P-11) using a linear KCl (50-500 mM) gradient in buffer B. The peak fractions were pooled and dialyzed against buffer B. The enzyme was characterized as HIV-1 reverse transcriptase based on its cation, salt, pH, and template requirements according to previous descriptions (Eriksson et al, Antimicrob. Agents Chemother. 31, 600-604, 1977). The standard reaction mixture was used to evaluate the inhibitory effect of the drugs, as previously described (Eriksson et al, Antimicrob. Agents Chemother. 31, 600-604, 1977). Briefly, the reaction mixtures (final volume 100 μl) contained 100 mM Tris-HCl, pH 8.0, 50 mM KCl, 2 mM MgCl2, 5 mM DTT, 400 ug/ml bovine serum albumin, 3 μg/ml (rA)·(dT)12-18 and 1 μM of [^3H]TTP (specific activity 82.3 Ci/mmol). The reactions were started by the addition of 10 μl of partially purified RT, incubated at 37° C. for 60 min., and processed as previously described (Eriksson et al, Antimicrob. Agents Chemother. 31, 600-604, 1977).
Median-effect method. Dose-effect relationships were analyzed by the median-effect equation (Chou et al, Adv. Enz. Regul. 22, 27-55, 1984). The slope (m) and median effective and inhibitory concentration (EC50 and IC50) values were obtained by using a computer program developed by Chou and Chou (Chou et al, Elsevier-Biosoft, Elsevier Science Publishers, Cambridge, U.K., 1985).

For another data set, the system named is HSV-1. The data set is described as follows: Plaque reduction assay for herpes simplex viruses in Vero cells. The format is cell-based, herpes simplex virus type 1. The conditions noted are these: Table 2; read-out: EC-50 HSV-1. The protocol: (§1) Cell culture assays for heroes simplex viruses. Mycoplasma-free Vero cells, obtained from Flow Laboratory (McLean, Va.), were used for the plaque assays. The methodologies for the plaque reduction and cytotoxicity assays have been previously described (Schinazi et al, Antimicrob. Agents Chemother. 22, 499-507, 1982). Median-effect method. Dose-effect relationships were analyzed by the median-effect equation (Chou et al, Adv. Enz. Regul. 22, 27-55, 1984). The slope (m) and median effective and inhibitory concentration (EC50 and IC50) values were obtained by using a computer program developed by Chou and Chou (Chou et al, Elsevier-Biosoft, Elsevier Science Publishers, Cambridge, U.K., 1985).

The test system of a further data set is HSV-2. Described as above. As to conditions: Table 2; read-out: EC-50 HSV-2. Type of data set: cell-based, herpes simplex virus type 2. As to the method: as §1
A further data set has as its system Friend, Spleen (EY-10). The experiment in a line: UV/XC assay for murine retroviruses in SC-1 cells. The conditions noted are these: Table 2; read-out: EC-50 Friend, Spleen (EY-10). The format is cell-based, murine retrovirus. The protocol:
UV/XC Assay for Murine Retroviruses Cells. Mouse embryo fibroblasts (SC-1) and XC cells were obtained from the American Type Culture Collection, Rockville, Md. The XC cell line was derived from a transplantable tumor induced in newborn White-Weston rats by the intramuscular injection of the Prague strain of Rous sarcoma virus. […] The cells were maintained in Eagle's minimum essential medium with Hanks balanced salt solution, supplemented with penicillin (100 U/ml), streptomycin (100 μg/ml), sodium bicarbonate (24 mM), Hepes (25 mM), and either 2 (maintenance) or 10 (growth) percent inactivated newborn or fetal calf serum.
Virus quantitation by UV-XC assay. The XC test (Rowe et al, Virology 42, 1136-1139, 1970) is a plaque-type of assay which tests for the presence and titer of B- and N-tropic murine leukemia viruses. Because these viruses produce no overt signs of infection of SC-1 mouse cells, it is necessary to overlay the virus producing culture with an indicator cell line, XC. The number of syncytia that are produced is a direct measure of the virus titer in FFU.
Six-well plates were seeded with 1×10^5 SC-1 mouse cells on the first day. On the following day the medium was removed and the inoculum (0.2 ml) was added in medium containing polybrene (4 μg/ml). For determining the antiviral activity of the compounds in culture, the virus dilution selected produced in untreated cultures about 80 foci per well. After 1 hour, the virus was removed and various concentrations of the drug were added. The plates were replenished with medium on the third and fifth days. The medium was removed on the eighth day and the cells exposed to UV irradiation (60 erg/mm^2 per sec) for 30 seconds. Medium containing 10^6 XC cells was then added to each plate. On the eleventh day, the plates were fixed with 10% buffered Formalin and stained with crystal violet. Comparison of the number of foci to those found in virus-infected cells receiving no drug allowed determination of whether a drug at a particular concentration was effective. Control cells without virus but receiving the drug provided an estimate of the drug's toxic effects as quantitated by using trypan blue staining.

For another data set, the system named is Vero cells. The data set is described as follows: Cytotoxicity assay in Vero cells. Type of data set: cell-based. As to conditions: Table 2; >100 μM = Nontoxic; read-out: IC50 Toxicity Vero Cells. The text has this:
Cell culture assays for heroes simplex viruses. Mycoplasma-free Vero cells, obtained from Flow Laboratory (McLean, Va.), were used for the plaque assays. The methodologies for the plaque reduction and cytotoxicity assays have been previously described (Schinazi et al, Antimicrob. Agents Chemother. 22, 499-507, 1982).

A short description of data set [2]: Comparison of toxicity of polyoxometalate compounds in mice (mortality, haematology). Type of data set: in vivo. The arrangement: MCV (mean corpuscular volume): unit not given here. The conditions noted are these: BID × 6, 60 mkd i.p. The text has this:
Comparison of Toxicity of Polyoxometalate Compounds Mice.
In vivo antiviral experiments. […] Treatment was continued daily for 6 or 10 days.

Data set [3] deals with human granulocyte-macrophage precursor cells. The format is cell-based. The text has this: Preparation of Cells. Human bone marrow cells were collected by aspiration from the posterior iliac crest of normal healthy volunteers, treated with heparin and the mononuclear population separated by Ficoll-Hypaque gradient centrifugation. Cells were washed twice in Hanks balanced salt solution, counted with a hemacytometer and their viability was >98% as assessed by trypan blue exclusion.
Assay of Colony-Forming Unit Granulocyte-Macrophage (CFU-GM) for Drug Cytotoxicity. The culture assay for CFU-GM was performed using a bilayer soft-agar method as recently described (Sommadossi et al, Antimicrob. Agents Chemother. 31, 452-454, 1987). McCoy 5A nutrient medium supplemented with 15% dialyzed fetal bovine serum (heat inactivated at 56° C. for 30 min.) (Gibco Laboratories, Grand Island, N.Y.) was used in all experiments. This medium was completely lacking in thymidine and uridine. Cells were cloned in 0.3% agar in the presence of increasing concentrations of the modulating compound or in medium alone (control). After 14 days of incubation at 37° C. in a humidified atmosphere of 5% CO2 in air, colonies (≧50 cells) were counted using an inverted microscope.
The toxicities of a variety of polyoxometalates with respect to human bone marrow cells (human granulocyte-macrophage precursor cells) were assessed.

The IC50 is the midpoint of a concentration-inhibition curve. Take “(HisH^+)p(H^+)4-pST, where p=1-4 [(HISH^+)nH^+(4−n)ST]”: the IC50 in the data set with human PBM cells was 182 µM; in the data set with Vero cells it was above 100 µM. The EC50 came to 22.3 µM in data set [1]; 0.95 µM in the data set on HSV-1; 0.87 µM with HSV-2; 0.92 µM in the data set on Friend, Spleen (EY-10).

“(LysH^+)q(H^+)5-qST, where q=1-5 [(LYSH^+)nH^+(4−n)ST]”: the IC50 with human PBM cells is 2450 µM; in the data set on Vero cells, above 100 µM. In addition, the EC50 is 20.5 µM in data set [1]; 0.32 µM in the data set with HSV-1; below 1 µM in the data set with HSV-2; 0.95 µM in the data set with Friend, Spleen (EY-10).

As for (NH4)4[SiW12O40] [NH4ST], in data set [2] (bled on day 17), the “Hct (hematocrit)” value was found to be 17.47 ± 7.08%, the “Hgb (hemaglobin)” value amounted to 6.42 ± 2.39 g/dL, the MCH is given as 17.6 ± 4.64 pg and the “MCHC (mean corpuscular hemoglobin concentration)” value was 37.92 ± 9.82 g/dL. Moreover, in data set [2] (bled on day 17), the “MCV (mean corpuscular volume)” value was found to be 43.38 ± 0.51, the “PLT (platelates) (×1000)” value is 246.46 ×1000, the “RBC (×1000000)” value was 3.76 ± 1.57 ×1000000 and the “RDW (width of red cells)” value came out at 36.76 ± 2.63%. Further, the “WBC (×1000)” value in data set [2] (bled on day 17) was 7.18 ± 3.9 ×1000. Besides, the Mortality in data set [2] (dead/total) is on record as 0/5. Also, the “toxicity to human bone marrow cells (order of toxicity, FIG. 6)” value in data set [3] is “NH4BT (least toxic)<BT and NH4ST<AZT and ST”.
